Test system: 439559-082-T-J2-PDC complex spheroid growth
Assay: Anticancer human tumor 439559-082-T-J2-PDC patient-derived colon adenocarcinoma cell line growth inhibition [Asc]
Settings: for IC50: curve of first compound; for viability, T/C: stronger effect = lower value; active = viability on the fitted dose curve at most 10% of control; inactive = the rest
Method in brief: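 Complex solid-tumor spheroids incorporating human endothelial and mesenchymal stem cells received single agents or combinations over half-log dilution ranges anchored to clinical Cmax.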
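Note: spheroids exposed to agents for 7 days starting day 3 after seeding.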
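Throughout, for viability, T/C: percent of DMSO vehicle control viability with 100% = vehicle.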

CCN1CCN(Cc2ccc(Nc3ncc(F)c(-c4cc(F)c5nc(C)n(C(C)C)c5c4)n3)nc2)CC1 + CNC(C)C(=O)NC1CN(S(=O)(=O)c2cccc(S(=O)(=O)N3CCC4CCC(C(=O)NC(c5ccccc5)c5ccccc5)N4C(=O)C(NC(=O)C(C)NC)C3)c2)CCC2CCC(C(=O)NC(c3ccccc3)c3ccccc3)N2C1=O
inactive: viability, T/C (second compound 0.00316 µM, first compound 0.00316 µM) 99.5% | viability, T/C (second compound 0.00316 µM, first compound 0.01 µM) 92.6% | viability, T/C (second compound 0.00316 µM, first compound 0.0316 µM) 91% | viability, T/C (second compound 0.00316 µM, first compound 0.1 µM) 94.1% | viability, T/C (second compound 0.00316 µM, first compound 0.316 µM) 85.8% | viability, T/C (second compound 0.00316 µM, first compound 1 µM) 66.9% | viability, T/C (second compound 0.01 µM, first compound 0.00316 µM) 107% | viability, T/C (second compound 0.01 µM, first compound 0.01 µM) 101% | viability, T/C (second compound 0.01 µM, first compound 0.0316 µM) 87.3% | viability, T/C (second compound 0.01 µM, first compound 0.1 µM) 95.4% | viability, T/C (second compound 0.01 µM, first compound 0.316 µM) 88% | viability, T/C (second compound 0.01 µM, first compound 1 µM) 73.1% | viability, T/C (second compound 0.0316 µM, first compound 0.00316 µM) 95.8% | viability, T/C (second compound 0.0316 µM, first compound 0.01 µM) 111% | viability, T/C (second compound 0.0316 µM, first compound 0.0316 µM) 89.6% | viability, T/C (second compound 0.0316 µM, first compound 0.1 µM) 96.8% | viability, T/C (second compound 0.0316 µM, first compound 0.316 µM) 94.5% | viability, T/C (second compound 0.0316 µM, first compound 1 µM) 78.5% | viability, T/C (second compound 0.1 µM, first compound 0.00316 µM) 103% | viability, T/C (second compound 0.1 µM, first compound 0.01 µM) 87.9% | viability, T/C (second compound 0.1 µM, first compound 0.0316 µM) 99% | viability, T/C (second compound 0.1 µM, first compound 0.1 µM) 94.6% | viability, T/C (second compound 0.1 µM, first compound 0.316 µM) 95.5% | viability, T/C (second compound 0.1 µM, first compound 1 µM) 64.2% | viability, T/C (second compound 0.316 µM, first compound 0.00316 µM) 91.6% | viability, T/C (second compound 0.316 µM, first compound 0.01 µM) 84.2% | viability, T/C (second compound 0.316 µM, first compound 0.0316 µM) 86.8% | viability, T/C (second compound 0.316 µM, first compound 0.1 µM) 75.5% | viability, T/C (second compound 0.316 µM, first compound 0.316 µM) 82% | viability, T/C (second compound 0.316 µM, first compound 1 µM) 65.5% | viability, T/C (second compound 1 µM, first compound 0.00316 µM) 88.9% | viability, T/C (second compound 1 µM, first compound 0.01 µM) 77.3% | viability, T/C (second compound 1 µM, first compound 0.0316 µM) 69.4% | viability, T/C (second compound 1 µM, first compound 0.1 µM) 69.2% | viability, T/C (second compound 1 µM, first compound 0.316 µM) 62.1% | viability, T/C (second compound 1 µM, first compound 1 µM) 48.9%
> 1000 nM: IC50 (second compound 0.00316 µM) | IC50 (second compound 0.01 µM) | IC50 (second compound 0.0316 µM) | IC50 (second compound 0.1 µM) | IC50 (second compound 0.316 µM) | IC50 (second compound 1 µM)

Reference: PubChem BioAssay AID1963423 (Molecular Pharmacology Branch, DTP, NCI, 2024)
